# Data: US9365587B2, “Synthesis of carbamoylpyridone HIV integrase inhibitors and intermediates” (Shionogi & Co., Ltd., priority 2008, dated 2016)
# Assays:
# Details in all cases: crystal
# [1] = solubility of the crystals in water or saline; assay type: physicochemical
# [2] = pharmacokinetics of the crystals (BA, Cmax, Tmax); assay type: in vivo
# [3] = stability of the crystals against heat or light; assay type: physicochemical
compound,measurement,setting,value
C[C@@H]1CCO[C@H]2Cn3cc(C(=O)NCc4ccc(F)cc4F)c(=O)c(O)c3C(=O)N12 [Compound 13],solubility in water or saline,[1],high
same,bioavailability (BA),[2],high
same,maximum drug concentration (Cmax),[2],high
same,maximum drug concentration time (Tmax),[2],short
same,stability against heat or light,[3],high
